Molecular target: T1, ZIKV NS3-Hel (Zika virus NS3 helicase) (Zika virus ZIKV/H. sapiens/FrenchPolynesia/10087PF/2013, UniProt A0A024B7W1)
T1 construct: helicase domain, residues 171-617 of NS3, cut from the genome polyprotein; N-terminal 6xHis-SUMO tag cleaved off
Test: STD NMR titration; crystal structure also solved
Format: binding

T1 sequence (A0A024B7W1 1673-2119): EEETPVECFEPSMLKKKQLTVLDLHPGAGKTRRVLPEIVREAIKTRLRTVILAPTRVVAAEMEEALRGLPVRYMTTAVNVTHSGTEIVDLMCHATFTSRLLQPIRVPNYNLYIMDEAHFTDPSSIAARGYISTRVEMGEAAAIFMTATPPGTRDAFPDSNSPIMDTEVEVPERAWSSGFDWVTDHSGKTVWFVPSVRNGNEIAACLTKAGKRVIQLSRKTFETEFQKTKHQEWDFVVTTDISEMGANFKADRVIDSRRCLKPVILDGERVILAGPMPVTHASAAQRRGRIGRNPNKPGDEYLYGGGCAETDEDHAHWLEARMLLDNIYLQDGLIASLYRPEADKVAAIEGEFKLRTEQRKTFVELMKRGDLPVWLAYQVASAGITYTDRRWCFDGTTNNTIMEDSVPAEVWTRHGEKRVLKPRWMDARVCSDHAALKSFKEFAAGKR

Compound	Kd [mM]
Nc1nc(N)c2[nH]cnc2n1 [compound 1, 2,6-di-aminopurine]	2.8 ± 0.4
NC(=O)c1ccc(Cl)cc1Cl [compound 4, 2,4-dicholorobenzamide]	5.1 ± 1.4
